Experimental data taken from patent publication US11807693B2 (priority 2014, dated 2023).
Starred links: 1 amine or outer side, 2 acyl side, 3 side chain; linkers in the order of their positions; H or OH if unused. Non-standard residues stand in square brackets, D forms with d. Residues, ends and D or L forms follow the SMILES beside them. ξ: configuration not given here. *: point of attachment. dBip = N[C@H](Cc1ccc(-c2ccccc2)cc1)C(=O)O; Oic = O=C(O)[C@@H]1C[C@@H]2CCCC[C@@H]2N1; Phe(4-Cl) = N[C@@H](Cc1ccc(Cl)cc1)C(=O)O; Phe(4-I) = N[C@@H](Cc1ccc(I)cc1)C(=O)O; γGlu = O=C(O)[C@H](CCC(=O)[*:2])N[*:1]; d(β3hF) = N[C@@H](CC(=O)O)Cc1ccccc1; NMeR = CN[C@@H](CCCNC(=N)N)C(=O)O; Tridecanoyl = CCCCCCCCCCCCC(=O)*; hArg = N=C(N)NCCCC[C@H](N)C(=O)O; Cha = N[C@@H](CC1CCCCC1)C(=O)O; NMeL = CN[C@@H](CC(C)C)C(=O)O; Tle = CC(C)(C)[C@H](N)C(=O)O; β3hV = CC(C)[C@H](N)CC(=O)O; Nle = CCCC[C@H](N)C(=O)O; ξαMeP = CC1(C(=O)O)CCCN1; ξβ3hV = CC(C)C(N)CC(=O)O; AEEA = NCCOCCOCC(=O)O

Legend:
Format in all cases: in vitro ADME
[1] = In vitro stability in rat plasma
Summary of the method: (§1)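 Peptide remaining was followed by high-resolution LC-MS of methanol-quenched, centrifuged samples with internal standard. Incubations were at 37° C. over 4 hr, peptides at 5 μM final in rat plasma or in rat liver or kidney homogenate.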

[2] = In vitro stability in rat liver homogenate; settings: tissue homogenate
Summary of the method: as §1

[3] = In vitro stability in rat kidney homogenate; settings: rat, tissue homogenate
Experimental: Apelin peptides were spiked into rat plasma, liver homogenate, and kidney homogenate, which were obtained from commercial sources, to a final concentration of 5 μM. The samples were then incubated at 37° C. over a period of 4 hr. […] In a typical experiment, an aliquot of 100 μL of sample was taken from the incubation vial, followed by addition of 300 μL of MeOH containing internal standard. The quenched sample was centrifuged at 5500 g for 15 min after 15 min vortex in room temperature. The supernatant was then analyzed by high resolution LC-MS. […] In vitro plasma, […], and kidney stability results are shown below in Table 14.

SMILES	remaining at 4 h, 5 μM [1]	remaining at 4 h, 5 μM [2]	remaining at 4 h, 5 μM [3]
CCCCCCCCCCCCC(=O)N[C@@H](CCC(=O)NCCOCCOCC(=O)NCCOCCOCC(=O)N[C@@H](CCCCNC(=N)N)C(=O)N[C@H](CCCNC(=N)N)C(=O)N[C@@H](CCC(N)=O)C(=O)N[C@@H](CCCC)C(=O)N1CCC[C@H]1C(=O)N[C@H](CCCNC(=N)N)C(=O)N(C)[C@@H](CC(C)C)C(=O)N[C@@H](CO)C(=O)N[C@@H](C)C(=O)N[C@@H](CCCCN)C(=O)NCC(=O)N1[C@H](C(=O)N[C@@H](Cc2ccc(I)cc2)C(=O)N2CCC[C@H]2C(=O)N[C@H](Cc2ccc(-c3ccccc3)cc2)C(=O)O)C[C@@H]2CCCC[C@@H]21)C(=O)O [compound 328] ({Tridecanoyl-γGlu-AEEA-AEEA}-[hArg][dR]Q[Nle]P[dR][NMeL]SAKG[Oic][Phe(4-I)]P[dBip]-OH)	76%	0%	55%
CCCCCCCCCCCCC(=O)N[C@@H](CCC(=O)NCCOCCOCC(=O)NCCOCCOCC(=O)N[C@@H](CCCC)C(=O)N[C@@H](CCC(N)=O)C(=O)N[C@@H](CCCNC(=N)N)C(=O)N1CCC[C@H]1C(=O)N[C@@H](CCCCNC(=N)N)C(=O)N[C@@H](CC1CCCCC1)C(=O)N[C@@H](CO)C(=O)N[C@@H](Cc1c[nH]cn1)C(=O)N[C@@H](CCCCN)C(=O)NCC(=O)N1[C@H](C(=O)N[C@@H](CCCC)C(=O)N2CCC[C@H]2C(=O)N[C@@H](Cc2ccc(Cl)cc2)C(=O)O)C[C@@H]2CCCC[C@@H]21)C(=O)O [compound 338] ({Tridecanoyl-γGlu-AEEA-AEEA}-[Nle]QRP[hArg][Cha]SHKG[Oic][Nle]P[Phe(4-Cl)]-OH)	76%	12%	1%
CCCCCCCCCCCCC(=O)N[C@@H](CCC(=O)NCCOCCOCC(=O)NCCOCCOCC(=O)N[C@@H](CCCNC(=N)N)C(=O)N[C@@H](CCC(N)=O)C(=O)N[C@@H](CCCC)C(=O)N1CCC[C@H]1C(=O)N[C@@H](CCCCNC(=N)N)C(=O)N[C@@H](CC1CCCCC1)C(=O)N[C@@H](CO)C(=O)N[C@@H](Cc1c[nH]cn1)C(=O)N[C@@H](CCCCN)C(=O)NCC(=O)N1[C@H](C(=O)N[C@@H](CCCC)C(=O)N2CCC[C@H]2C(=O)N[C@@H](Cc2ccc(Cl)cc2)C(=O)O)C[C@@H]2CCCC[C@@H]21)C(=O)O [compound 339] ({Tridecanoyl-γGlu-AEEA-AEEA}-RQ[Nle]P[hArg][Cha]SHKG[Oic][Nle]P[Phe(4-Cl)]-OH)	93%	13%	2%
CCCCCCCCCCCCC(=O)N[C@@H](CCC(=O)NCCOCCOCC(=O)NCCOCCOCC(=O)N[C@@H](CCCNC(=N)N)C(=O)N[C@@H](CCC(N)=O)C(=O)N[C@@H](CCCNC(=N)N)C(=O)N1CCC[C@H]1C(=O)N[C@@H](CCCC)C(=O)N[C@@H](CC1CCCCC1)C(=O)N[C@@H](C)C(=O)N[C@@H](Cc1c[nH]cn1)C(=O)N[C@@H](CCCCN)C(=O)NCC(=O)N1[C@H](C(=O)N[C@@H](CCCC)C(=O)N2CCC[C@H]2C(=O)N[C@@H](Cc2ccc(Cl)cc2)C(=O)O)C[C@@H]2CCCC[C@@H]21)C(=O)O [compound 344] ({Tridecanoyl-γGlu-AEEA-AEEA}-RQRP[Nle][Cha]AHKG[Oic][Nle]P[Phe(4-Cl)]-OH)	88%	6%	0%
CCCCCCCCCCCCC(=O)N[C@@H](CCC(=O)NCCOCCOCC(=O)NCCOCCOCC(=O)N[C@@H](CCC(N)=O)C(=O)N[C@@H](CCCNC(=N)N)C(=O)N1CCC[C@H]1C(=O)N[C@@H](CCCCNC(=N)N)C(=O)N[C@@H](CC(C)C)C(=O)N[C@@H](CO)C(=O)N[C@@H](Cc1c[nH]cn1)C(=O)N[C@@H](CCCCN)C(=O)NCC(=O)N1[C@H](C(=O)N[C@@H](CCCC)C(=O)N2CCC[C@H]2C(=O)N[C@@H](Cc2ccc(Cl)cc2)C(=O)O)C[C@@H]2CCCC[C@@H]21)C(=O)O [compound 356] ({Tridecanoyl-γGlu-AEEA-AEEA}-QRP[hArg]LSHKG[Oic][Nle]P[Phe(4-Cl)]-OH)	87%	2%	0%
CCCCCCCCCCCCC(=O)N[C@@H](CCC(=O)NCCOCCOCC(=O)NCCOCCOCC(=O)N[C@@H](CCC(N)=O)C(=O)N[C@@H](CCCNC(=N)N)C(=O)N1CCC[C@H]1C(=O)N(C)[C@@H](CCCNC(=N)N)C(=O)N[C@@H](CC1CCCCC1)C(=O)N[C@@H](CO)C(=O)N[C@@H](Cc1c[nH]cn1)C(=O)N[C@@H](CCCCN)C(=O)NCC(=O)N1CCC[C@H]1C(=O)N[C@@H](CCCC)C(=O)N1CCC[C@H]1C(=O)N[C@@H](Cc1ccc(Cl)cc1)C(=O)O)C(=O)O [compound 361] ({Tridecanoyl-γGlu-AEEA-AEEA}-QRP[NMeR][Cha]SHKGP[Nle]P[Phe(4-Cl)]-OH)	34.5%	1.5%	0.5%
CCCCCCCCCCCCC(=O)N[C@@H](CCC(=O)NCCOCCOCC(=O)NCCOCCOCC(=O)N[C@H](CCC(N)=O)C(=O)N[C@@H](CCCCNC(=N)N)C(=O)N1CCC[C@H]1C(=O)N[C@H](CCCNC(=N)N)C(=O)N[C@@H](CC1CCCCC1)C(=O)N[C@@H](CO)C(=O)N[C@@H](Cc1c[nH]cn1)C(=O)N[C@@H](CCCCN)C(=O)N[C@H](C(=O)N1[C@H](C(=O)N[C@@H](CCCC)C(=O)N2CCC[C@H]2C(=O)N[C@@H](Cc2ccc(Cl)cc2)C(=O)O)C[C@@H]2CCCC[C@@H]21)C(C)(C)C)C(=O)O [compound 371] ({Tridecanoyl-γGlu-AEEA-AEEA}-[dQ][hArg]P[dR][Cha]SHK[Tle][Oic][Nle]P[Phe(4-Cl)]-OH)	90%	81%	28%
CCCCCCCCCCCCC(=O)N[C@@H](CCC(=O)NCCOCCOCC(=O)NCCOCCOCC(=O)N[C@H](CCC(N)=O)C(=O)N[C@@H](CCCNC(=N)N)C(=O)N1CCC[C@H]1C(=O)N(C)[C@@H](CCCNC(=N)N)C(=O)N[C@@H](CC1CCCCC1)C(=O)N[C@@H](CO)C(=O)N[C@@H](Cc1c[nH]cn1)C(=O)N[C@@H](CCCCN)C(=O)NCC(=O)N1[C@H](C(=O)N[C@@H](CCCC)C(=O)N2CCC[C@H]2C(=O)N[C@@H](Cc2ccc(Cl)cc2)C(=O)O)C[C@@H]2CCCC[C@@H]21)C(=O)O [compound 377] ({Tridecanoyl-γGlu-AEEA-AEEA}-[dQ]RP[NMeR][Cha]SHKG[Oic][Nle]P[Phe(4-Cl)]-OH)	65%	4%	99%
CCCCCCCCCCCCC(=O)N[C@@H](CCC(=O)NCCOCCOCC(=O)NCCOCCOCC(=O)N[C@@H](CCC(N)=O)C(=O)N[C@@H](CCCNC(=N)N)C(=O)N1CCC[C@H]1C(=O)N(C)[C@@H](CCCNC(=N)N)C(=O)N[C@@H](CC1CCCCC1)C(=O)N[C@@H](CO)C(=O)N[C@@H](Cc1c[nH]cn1)C(=O)N[C@@H](CCCCN)C(=O)NCC(=O)N1[C@H](C(=O)N[C@@H](CCCC)C(=O)N2CCC[C@H]2C(=O)N[C@@H](CC(=O)O)Cc2ccccc2)C[C@@H]2CCCC[C@@H]21)C(=O)O [compound 380] ({Tridecanoyl-γGlu-AEEA-AEEA}-QRP[NMeR][Cha]SHKG[Oic][Nle]P[d(β3hF)]-OH)	97%	2%	1%
CCCCCCCCCCCCC(=O)N[C@@H](CCC(=O)NCCOCCOCC(=O)NCCOCCOCC(=O)N[C@@H](CCC(N)=O)C(=O)N[C@@H](CCCNC(=N)N)C(=O)N1CCC[C@H]1C(=O)N(C)[C@@H](CCCNC(=N)N)C(=O)N[C@@](C)(CC(C)C)C(=O)N[C@@H](CO)C(=O)N[C@@H](Cc1c[nH]cn1)C(=O)N[C@@H](CCCCN)C(=O)NCC(=O)N1CCC[C@@]1(C)C(=O)N[C@@H](CCCC)C(=O)N1CCC[C@H]1C(=O)N[C@@H](Cc1ccc(Cl)cc1)C(=O)O)C(=O)O [compound 387]	73%	4%	1%
CCCCCCCCCCCCC(=O)N[C@@H](CCC(=O)NCCOCCOCC(=O)NCCOCCOCC(=O)N[C@@H](CCC(N)=O)C(=O)N[C@@H](CCCNC(=N)N)C(=O)N1CCC[C@H]1C(=O)N(C)[C@@H](CCCNC(=N)N)C(=O)N[C@H](CC(=O)N[C@@H](CO)C(=O)N[C@@H](Cc1c[nH]cn1)C(=O)N[C@@H](CCCCN)C(=O)NCC(=O)N1[C@H](C(=O)N[C@@H](CCCC)C(=O)N2CCC[C@H]2C(=O)N[C@@H](Cc2ccc(Cl)cc2)C(=O)O)C[C@@H]2CCCC[C@@H]21)C(C)C)C(=O)O [compound 391] ({Tridecanoyl-γGlu-AEEA-AEEA}-QRP[NMeR][β3hV]SHKG[Oic][Nle]P[Phe(4-Cl)]-OH)	2%	5%	2%
CCCCCCCCCCCCC(=O)N[C@@H](CCC(=O)NCCOCCOCC(=O)NCCOCCOCC(=O)N[C@@H](CCC(N)=O)C(=O)N[C@@H](CCCNC(=N)N)C(=O)N1CCCC1(C)C(=O)N[C@@H](CCCCNC(=N)N)C(=O)NC(CC(=O)N[C@@H](CO)C(=O)N[C@@H](Cc1c[nH]cn1)C(=O)N[C@@H](CCCCN)C(=O)NCC(=O)N1[C@H](C(=O)N[C@@H](CCCC)C(=O)N2CCC[C@H]2C(=O)N[C@@H](Cc2ccc(Cl)cc2)C(=O)O)C[C@@H]2CCCC[C@@H]21)C(C)C)C(=O)O (stereo partly drawn) [compound 392] ({Tridecanoyl-γGlu-AEEA-AEEA}-QR[ξαMeP][hArg][ξβ3hV]SHKG[Oic][Nle]P[Phe(4-Cl)]-OH)	73%	82%	< 1%
